Molecular target: T1, adenosine deaminase (ADA) (Homo sapiens, UniProt P00813)
T1 construct: purchased Sigma
T1 sequence (P00813 1-363): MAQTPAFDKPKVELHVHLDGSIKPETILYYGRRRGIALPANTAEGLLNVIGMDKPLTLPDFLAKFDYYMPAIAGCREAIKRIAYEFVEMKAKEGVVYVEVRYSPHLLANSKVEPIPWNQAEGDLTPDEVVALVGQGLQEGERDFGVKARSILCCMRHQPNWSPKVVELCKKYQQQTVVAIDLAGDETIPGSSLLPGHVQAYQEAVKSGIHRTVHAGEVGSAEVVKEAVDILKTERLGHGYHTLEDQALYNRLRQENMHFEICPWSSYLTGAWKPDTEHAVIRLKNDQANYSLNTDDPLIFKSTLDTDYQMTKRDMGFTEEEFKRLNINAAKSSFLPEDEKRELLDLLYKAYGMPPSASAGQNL
Assay: Cell viability with adenosine derivatives in presence or absence of ADA, normoxic conditions (Example 2)
Format: cell-based
Details: presence of ADA
Method: Three known ADA inhibitors were examined to evaluate the efficacies of adenosine derivatives: cladribine, pentostatin, and fludarabine phosphate. They have similar structures and molecular weights compared to adenosine, but different functional groups in the structures. Metabolic rate of cells were indirectly analyzed by cell viability in the presence or absence of adenosine derivatives and ADA in various doses. Cell viability with the drugs was evaluated under normoxic conditions.
Adenosine (Sigma-Aldrich), cladribine (Sigma, 2-Chloro-2′-deoxyadenosine), pentostatin (Tocris biosciences), and fludarabine phosphate (LGM Pharma) were used throughout this study.

Nc1ncnc2c1ncn2[C@@H]1O[C@H](CO)[C@@H](O)[C@H]1O [adenosine]
conversion by ADA / stability towards adenosine degrading enzymes: lost its activity in presence of ADA

From patent publication US20150025031A1, “METABOLIC DOWNREGULATION FOR CELL SURVIVAL” (WAKE FOREST UNIVERSITY HEALTH SCIENCES, priority 2012, published 2015)
